Experimental data reported in patent US20030190396A1, “Methods and compositions for altering the sweetness delivery profile of sucralose” (priority 2002, published 2003).
Where a SMILES comes first, the peptide text is derived from it.

Legend:
[1] = test system: rats; settings: cited from earlier work
[2] = Subcutaneous water retention in bodybuilders on a pre-competition diet (caliper test and visual inspection, Example 6); assay type: in vivo, human; settings: ten bodybuilders; 12-week pre-competition diet with this sweetener only; caliper test and muscle definition score twice weekly
Procedure: This study was defined to determine whether the ingestion of sucralose results in reduced subcutaneous water retention compared to the water retention resulting from the ingestion of aspartame. Ten bodybuilders on a pre-competition diet were closely monitored. Prior to the pre-competition diet, the body fat and the weight of the ten bodybuilders were measured. Prior to this study, the participants in their normal diet refrained for one week from any products containing either sucralose or aspartame.
In the first phase of the study, during the 12-week pre-competition diet, the body builders consumed goods and liquids that were sweetened with aspartame only. Two methods for assessing subcutaneous water retention were used. […] As a second test, the subjective visual inspection was used, where the abdomen and overall body definition were visually inspected and photographed. As with the objective test, the subjects' muscle definition-value was determined twice weekly. A scale of 1 to 10 for muscle definition was used as an indicator for subcutaneous water retention, with a score of 10 indicating excellent muscle definition and 1 indicating poor definition. […]

[3] = Roberts, J. Appl. Nutr. 1988; cited from earlier work
[4] = in vivo; cited from earlier work

| SMILES | risk of causing cancer [1] | subcutaneous water retention [2] | water retention within the body [3] | sweetness intensity relative to sucrose [4] |
| --- | --- | --- | --- | --- |
| O=C1NS(=O)(=O)c2ccccc21 [Saccharin] | reported to be a risk in causing cancer in rats |  |  |  |
| COC(=O)[C@H](Cc1ccccc1)NC(=O)[C@@H](N)CC(=O)O [aspartame, N-L-α-aspartyl-L-phenylalanine methyl ester] (H-Asp-Phe-OMe) |  | makes the body retain water | linked with excessive water retention within the body |  |
| OC[C@H]1O[C@H](O[C@]2(CCl)O[C@H](CCl)[C@@H](O)[C@@H]2O)[C@H](O)[C@@H](O)[C@H]1Cl [sucralose, 4,1′,6′-trichloro-4,1′,6′-trideoxygalactosucrose] |  | This effect is reduced |  | several hundred times that of sucrose |
